Some test systems named below: 786-0; EKVX; HOP-92; K562; MDA-MB-231; MOLT-4; Malme-3M; NCI-H23; OVCAR-4; OVCAR-5; PC-3; RXF 393; SF-295; SK-MEL-2; SK-MEL-5; SN12C; T47D; U-251; NCI-H460; SNB-19.
Holding throughout (assay): DTP human tumour cell line panel, 48 h

SMILES strings stand for the structures.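 96-well plates; 48 h exposure; 5 concentrations. Endpoints by linear interpolation between flanking doses. Not reached: highest tested concentration assigned. GI50 = concentration required for 50% inhibition of growth.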 Active and inactive are the calls of the source. No stated cut-off is given here; in the data, active = GI50 up to about 1.1 µM and inactive = higher.

Broadly, the GI50 is the concentration at which growth is held to half of that of the control.

`O=C1CC(Cc2n[nH]c3c2CCCC3)CC(=O)N1`: the GI50 in the assay on 786-0, with EKVX, in the assay with HOP-92, in the assay on K562, in the assay with MDA-MB-231 and in the assay with MOLT-4 was > 100 µM (inactive) in each case. Further, the GI50 with Malme-3M, in the assay with NCI-H23, in the assay on OVCAR-4, in the assay on OVCAR-5, in the assay on PC-3 and in the assay on RXF 393 was > 100 µM (inactive) each time. Moreover, the GI50 in the assay with SF-295, with SK-MEL-2, in the assay with SK-MEL-5, in the assay on SN12C, in the assay on T47D and in the assay with U-251 was > 100 µM (inactive) throughout.

With `Cc1noc(-c2ccc(C(=O)O)[nH]2)c1Br`, the GI50 was 29 µM (inactive) with 786-0; 30.9 µM (inactive) in the assay with EKVX; 12.2 µM (inactive) in the assay on HOP-92; > 100 µM (inactive) in the assay on K562; > 100 µM (inactive) in the assay with MDA-MB-231; > 100 µM (inactive) in the assay with MOLT-4. The GI50 is 69.8 µM (inactive) in the assay on Malme-3M; 55.6 µM (inactive) in the assay on NCI-H23; > 100 µM (inactive) in the assay on NCI-H460; 31.8 µM (inactive) in the assay on OVCAR-4; > 100 µM (inactive) in the assay with OVCAR-5; > 100 µM (inactive) in the assay with PC-3. The GI50 in the assay on RXF 393 was 23.4 µM (inactive); with SF-295 it was 28.1 µM (inactive); in the assay with SK-MEL-2, 87.9 µM (inactive); with SK-MEL-5, > 100 µM (inactive); in the assay with SNB-19, 37.4 µM (inactive); with T47D, 17.3 µM (inactive). The GI50 with U-251 is 34.8 µM (inactive).

For `O=c1c2ccccc2oc2c1ccc1ncccc12`, the GI50 was 12.3 µM (inactive) with 786-0; 8.2 µM (inactive) in the assay with EKVX; 5.53 µM (inactive) with HOP-92; 24.7 µM (inactive) in the assay with K562; 26.8 µM (inactive) in the assay on MDA-MB-231; 3.08 µM (inactive) with MOLT-4. The GI50 in the assay with Malme-3M is 14.8 µM (inactive); with NCI-H23, 16.2 µM (inactive); with NCI-H460 it was 3.56 µM (inactive); in the assay with OVCAR-4, 14.4 µM (inactive); with OVCAR-5, 1.4 µM (inactive); in the assay with PC-3 it was 22.4 µM (inactive). Moreover, the GI50 was 13.4 µM (inactive) in the assay with RXF 393; 12.9 µM (inactive) with SF-295; 27.2 µM (inactive) in the assay on SK-MEL-2; 11.5 µM (inactive) in the assay with SK-MEL-5; 10.6 µM (inactive) in the assay with SN12C; 12.1 µM (inactive) in the assay on T47D.

For `C1CNCCNCCN1`, the GI50 in the assay with 786-0, in the assay on EKVX, with HOP-92, in the assay on K562, in the assay with MDA-MB-231 and in the assay with MOLT-4 was > 100 µM (inactive) each time. The GI50 in the assay on NCI-H23, in the assay on NCI-H460, in the assay on OVCAR-4, in the assay with OVCAR-5, with PC-3 and in the assay on RXF 393 was > 100 µM (inactive) in each case. For the same compound, the GI50 in the assay with SF-295, with SK-MEL-2, in the assay on SK-MEL-5, in the assay on SN12C, in the assay on SNB-19 and with T47D was > 100 µM (inactive) throughout. Besides, in the assay on U-251, the GI50 was > 100 µM (inactive).

In the case of `O=C(CCCCCCC(=O)Nc1cccnc1)NO` [PYROXAMIDE], the GI50 in the assay on 786-0 was 7.21 µM (inactive); with EKVX it was 47.5 µM (inactive); in the assay on HOP-92, 12.8 µM (inactive); with K562 it was 4.26 µM (inactive); with MDA-MB-231 it was > 100 µM (inactive); in the assay on MOLT-4, 2.2 µM (inactive). For the same compound, the GI50 in the assay with Malme-3M was 0.902 µM (active); in the assay on NCI-H23, 13 µM (inactive); in the assay on NCI-H460, 2.82 µM (inactive); in the assay on OVCAR-4 it was 10.4 µM (inactive); in the assay on OVCAR-5, 4.14 µM (inactive); in the assay on PC-3, 7.26 µM (inactive). The GI50 in the assay on RXF 393 is 5.89 µM (inactive); with SF-295, 21.2 µM (inactive); in the assay with SK-MEL-2, 2.72 µM (inactive); in the assay on SK-MEL-5, 1.21 µM (inactive); with SNB-19, 16.1 µM (inactive); with T47D it was 1.47 µM (inactive). The GI50 with U-251 was 4.76 µM (inactive).

In the case of `COC(=O)NC(Nc1ccc(Cl)cc1Cl)(C(F)(F)F)C(F)(F)F`, the GI50 in the assay with 786-0 was > 100 µM (inactive); in the assay with EKVX, 48.9 µM (inactive); with HOP-92 it was 73.3 µM (inactive); in the assay with K562 it was 2.85 µM (inactive); with MDA-MB-231, > 100 µM (inactive); in the assay on MOLT-4, 37.8 µM (inactive). The GI50 is > 100 µM (inactive) in the assay on Malme-3M; > 100 µM (inactive) with NCI-H23; 30 µM (inactive) with NCI-H460; > 100 µM (inactive) in the assay with OVCAR-5; 15.1 µM (inactive) in the assay with PC-3; > 100 µM (inactive) in the assay with RXF 393. The GI50 in the assay on SF-295 is > 100 µM (inactive); in the assay with SK-MEL-2, > 100 µM (inactive); with SK-MEL-5, 26.7 µM (inactive); in the assay with SN12C, 80.4 µM (inactive); in the assay with SNB-19, > 100 µM (inactive); in the assay on T47D, 47 µM (inactive). The GI50 with U-251 is 54.1 µM (inactive).

In the case of `CCCCCCCCCCCCCC1=C(O)C(=O)C(CC2=C(O)C(=O)C(CCCCCCCCCCCCC)=C(O)C2=O)=C(O)C1=O`, the GI50 in the assay with 786-0 is > 100 µM (inactive); with EKVX, > 100 µM (inactive); in the assay with HOP-92, 75.2 µM (inactive); with K562, 66.1 µM (inactive); in the assay with MDA-MB-231, 51.9 µM (inactive); with MOLT-4, > 10 µM (inactive). Also, the GI50 in the assay on Malme-3M was > 100 µM (inactive); in the assay with NCI-H23, > 100 µM (inactive); in the assay on OVCAR-5 it was > 100 µM (inactive); in the assay with PC-3, > 100 µM (inactive); in the assay on RXF 393, 6.11 µM (inactive); in the assay on SF-295 it was 52 µM (inactive). The GI50 is > 100 µM (inactive) in the assay on SK-MEL-2; > 100 µM (inactive) with SK-MEL-5; > 100 µM (inactive) in the assay on SN12C; 27.9 µM (inactive) with SNB-19; > 100 µM (inactive) in the assay with T47D; 68.2 µM (inactive) in the assay with U-251.

As to `C(#C[C@@]12CCC[C@@H]1NCO2)c1ccc2c(c1)OCO2`, the GI50 in the assay with 786-0 was 43.7 µM (inactive); with EKVX, > 100 µM (inactive); with HOP-92, 35 µM (inactive); in the assay with K562, 21.9 µM (inactive); in the assay on MDA-MB-231 it was > 100 µM (inactive); with MOLT-4 it was 22.2 µM (inactive). Further, the GI50 in the assay on Malme-3M was 28.1 µM (inactive); in the assay with NCI-H23, > 100 µM (inactive); with NCI-H460, 50.9 µM (inactive); in the assay on OVCAR-4 it was 85.9 µM (inactive); with OVCAR-5, > 100 µM (inactive); with PC-3, 55.8 µM (inactive). Further, the GI50 is 49.3 µM (inactive) in the assay on RXF 393; 50.6 µM (inactive) with SF-295; > 100 µM (inactive) in the assay with SK-MEL-2; 33.3 µM (inactive) in the assay with SK-MEL-5; > 100 µM (inactive) in the assay on SNB-19; 58.2 µM (inactive) in the assay with T47D. For the same compound, the GI50 in the assay with U-251 was 70.5 µM (inactive).

With `CCCCCCCCCCCCCCNC(=O)CCC(NC(=O)c1ccc(N(C)Cc2cnc3nc(N)nc(N)c3n2)cc1)C(=O)NCCCCCCCCCCCCCC` (stereo unspecified), the GI50 in the assay on 786-0 was 1.28 µM (inactive); in the assay with EKVX it was 23.9 µM (inactive); in the assay with HOP-92, 14.8 µM (inactive); with K562, < 0.0185 µM (active); in the assay with MDA-MB-231, 8.73 µM (inactive); in the assay on MOLT-4, 0.982 µM (active). For the same compound, the GI50 in the assay with NCI-H23 is 3.8 µM (inactive); in the assay on NCI-H460, 0.363 µM (active); in the assay on OVCAR-4, 12.5 µM (inactive); with OVCAR-5 it was 19.2 µM (inactive); in the assay on PC-3, 0.665 µM (active); in the assay on RXF 393, 11.6 µM (inactive). The GI50 is 7.19 µM (inactive) in the assay on SF-295; 31 µM (inactive) in the assay on SK-MEL-2; 1.77 µM (inactive) in the assay on SK-MEL-5; 9.68 µM (inactive) in the assay with SN12C; 17.1 µM (inactive) in the assay with SNB-19; 8.51 µM (inactive) with T47D. For the same compound, in the assay with U-251, the GI50 is 2.24 µM (inactive).

With `O=C1NC(=O)C2(CCC(O)C2)c2cc[n+]([O-])cc21` (stereo unspecified), the GI50 in the assay with 786-0 was > 100 µM (inactive); in the assay on EKVX, 71.8 µM (inactive); with HOP-92, > 100 µM (inactive); with K562, > 100 µM (inactive); in the assay on MDA-MB-231 it was > 100 µM (inactive); in the assay with MOLT-4 it was > 100 µM (inactive). For the same compound, the GI50 in the assay on Malme-3M, in the assay with NCI-H23, in the assay on NCI-H460, with OVCAR-4, in the assay with OVCAR-5 and with PC-3 was > 100 µM (inactive) each time. For the same compound, the GI50 in the assay on RXF 393, in the assay with SF-295, in the assay with SK-MEL-2, with SN12C, in the assay with SNB-19 and in the assay with T47D was > 100 µM (inactive) in each case. For the same compound, the GI50 with U-251 is > 100 µM (inactive).

Turning to `O=C1/C(=C/c2ccccc2)CCCC1CN1CCCCC1` (stereo unspecified), the GI50 with 786-0 was 1.87 µM (inactive); with EKVX it was 15.1 µM (inactive); in the assay with HOP-92, 2.24 µM (inactive); in the assay with MDA-MB-231 it was 2 µM (inactive); with MOLT-4, 1.43 µM (inactive); with Malme-3M it was 1.82 µM (inactive). Further, the GI50 in the assay on NCI-H23 is 4.97 µM (inactive); in the assay on NCI-H460 it was 6.58 µM (inactive); with OVCAR-4 it was 2.05 µM (inactive); in the assay with OVCAR-5, 18.6 µM (inactive); with PC-3 it was 11.4 µM (inactive); with RXF 393 it was 1.83 µM (inactive). In addition, the GI50 in the assay with SF-295 is 19.1 µM (inactive); in the assay on SK-MEL-2, 4.56 µM (inactive); in the assay on SK-MEL-5 it was 4.31 µM (inactive); with SN12C, 5.9 µM (inactive); with SNB-19 it was 15.7 µM (inactive); in the assay with T47D it was 1.77 µM (inactive). The GI50 with U-251 is 13.3 µM (inactive).

Values taken from ChEMBL document CHEMBL1201862, “PubChem BioAssay data set” (2004).
